Experimental data published in patent US5202315A, “Cephalosporin compounds” (Lucky, Ltd., priority 1989, dated 1993).
In brackets after ≈: the same amount, converted by molar mass.

Assays:
Experiment in all cases: Antibacterial activity, MIC
Type in all cases: cell-based
[1] = system: Bacillus megaterium ATCC 9885; conditions: Priestia megaterium, ATCC9885; ATCC 9885; agar two-fold dilution, 37° C., 20 hours; read-out: MIC
Protocol: (§1) Also, the in vitro antibacterial activity was determined by the by a two-fold dilution method as described below:
(§2) That is, the two-fold serial dilutions of the compound were made dispersed in Muller-Hinton agar medium. 2 μl of standard test strain which had the 10^7 CFU per ml was inoculated on the medium, and was incubated at 37° C. for 20 hours.

[2] = system: Staphylococcus aureus ATCC 10537; conditions: ATCC10537, ATCC 10537, agar two-fold dilution, 37° C., 20 hours, read-out: MIC
Protocol: as §1, §2

[3] = system: Acinetobacter calcoaceticus ATCC 15473; conditions: ATCC15473, ATCC 15473, agar two-fold dilution, 37° C., 20 hours, read-out: MIC
Protocol: as §1, §2

[4] = system: Pseudomonas aeruginosa ATCC 25619; conditions: ATCC25619, ATCC 25619, agar two-fold dilution, 37° C., 20 hours, read-out: MIC
Protocol: as §1, §2

[5] = system: Citrobacter freundii ATCC 8090; conditions: ATCC8090, ATCC 8090, agar two-fold dilution, 37° C., 20 hours, read-out: MIC
Protocol: as §1, §2

[6] = system: Enterobacter aerogenes ATCC 29751; conditions: Klebsiella aerogenes, ATCC29751; ATCC 29751; agar two-fold dilution, 37° C., 20 hours; read-out: MIC
Protocol: as §1, §2

[7] = system: Pseudomonas aeruginosa ATCC 10145; conditions: ATCC10145, ATCC 10145, agar two-fold dilution, 37° C., 20 hours, read-out: MIC
Protocol: as §1, §2

[8] = system: Enterobacter cloacae ATCC 27508; conditions: ATCC27508, ATCC 27508, agar two-fold dilution, 37° C., 20 hours, read-out: MIC
Protocol: as §1, §2

[9] = system: Escherichia coli ATCC 10536; conditions: ATCC10536, agar two-fold dilution, 37° C., 20 hours
Protocol: as §1, §2

[10] = system: Micrococcus luteus ATCC 9341; conditions: ATCC9341, ATCC 9341, agar two-fold dilution, 37° C., 20 hours, read-out: MIC
Protocol: as §1, §2

[11] = system: Shigella flexneri ATCC 11836; conditions: ATCC11836, agar two-fold dilution, 37° C., 20 hours
Protocol: as §1, §2

[12] = system: Streptococcus faecalis ATCC 29212; conditions: Enterococcus faecalis, ATCC29212; ATCC 29212; agar two-fold dilution, 37° C., 20 hours; read-out: MIC
Protocol: as §1, §2

[13] = system: Proteus vulgaris ATCC 6059; conditions: ATCC6059, ATCC 6059, agar two-fold dilution, 37° C., 20 hours, read-out: MIC
Protocol: as §1, §2

[14] = system: Klebsiella pneumoniae ATCC 10031; conditions: ATCC10031, ATCC 10031, agar two-fold dilution, 37° C., 20 hours, read-out: MIC
Protocol: as §1, §2

[15] = system: Staphylococcus aureus ATCC 6538p; conditions: ATCC6538P, ATCC 6538p, agar two-fold dilution, 37° C., 20 hours, read-out: MIC
Protocol: as §1, §2

[16] = system: Proteus mirabilis ATCC 25933; conditions: ATCC25933, ATCC 25933, agar two-fold dilution, 37° C., 20 hours, read-out: MIC
Protocol: as §1, §2

[17] = system: Morganella morganii ATCC 8076h; conditions: ATCC8076H, agar two-fold dilution, 37° C., 20 hours
Protocol: as §1, §2

[18] = system: Serratia marcescens ATCC 27117; conditions: ATCC27117, ATCC 27117, agar two-fold dilution, 37° C., 20 hours, read-out: MIC
Protocol: as §1, §2

[19] = system: Staphylococcus epidermidis ATCC 12228; conditions: ATCC12228, ATCC 12228, agar two-fold dilution, 37° C., 20 hours, read-out: MIC
Protocol: as §1, §2

[20] = system: Escherichia coli ATCC 25922; conditions: ATCC25922, agar two-fold dilution, 37° C., 20 hours
Protocol: as §1, §2

[21] = system: Bacillus cereus ATCC 11778; conditions: ATCC11778, ATCC 11778, agar two-fold dilution, 37° C., 20 hours, read-out: MIC
Protocol: as §1, §2

[22] = system: Providencia rettgeri ATCC 9250; conditions: ATCC9250, agar two-fold dilution, 37° C., 20 hours
Protocol: as §1, §2

[23] = system: Salmonella typhimurium ATCC 14028; conditions: Salmonella enterica; ATCC 14028; agar two-fold dilution, 37° C., 20 hours; read-out: MIC
Protocol: as §1, §2

[24] = system: Shigella sonnei ATCC 11060; conditions: ATCC11060, ATCC 11060, agar two-fold dilution, 37° C., 20 hours, read-out: MIC
Protocol: as §1, §2

[25] = system: Pseudomonas aeruginosa ATCC 27853; conditions: ATCC27853, ATCC 27853, agar two-fold dilution, 37° C., 20 hours, read-out: MIC
Protocol: as §1, §2

SMILES	MIC [1]	MIC [2]	MIC [3]	MIC [4]	MIC [5]	MIC [6]	MIC [7]	MIC [8]	MIC [9]	MIC [10]	MIC [11]	MIC [12]	MIC [13]	MIC [15]	MIC [16]	MIC [17]	MIC [18]	MIC [19]	MIC [21]	MIC [22]	also measured
CC(C)(O/N=C(\C(=O)NC1C(=O)N2C(C(=O)[O-])=C(CSc3nc(N)cc(N)[n+]3C3CC3)CSC12)c1csc(N)n1)C(=O)O (stereo not drawn) [Compound I-48]	0.5 µg/mL (≈ 0.77 µM)	4 µg/mL (≈ 6.16 µM)	4 µg/mL (≈ 6.16 µM)	2 µg/mL (≈ 3.08 µM)	0.13 µg/mL (≈ 0.2 µM)	2 µg/mL (≈ 3.08 µM)	4 µg/mL (≈ 6.16 µM)	0.031 µg/mL (≈ 0.0477 µM)	0.13 µg/mL (≈ 0.2 µM)	0.5 µg/mL (≈ 0.77 µM)	0.063 µg/mL (≈ 0.097 µM)	> 128 µg/mL	0.13 µg/mL (≈ 0.2 µM)	4 µg/mL (≈ 6.16 µM)	0.063 µg/mL (≈ 0.097 µM)	≤ 0.008 µg/mL	0.25 µg/mL (≈ 0.385 µM)	2 µg/mL (≈ 3.08 µM)	64 µg/mL (≈ 98.5 µM)	≤ 0.008 µg/mL	MIC [14]: 0.063 µg/mL (≈ 0.097 µM); MIC [20]: 0.13 µg/mL (≈ 0.2 µM); MIC [23]: 0.5 µg/mL (≈ 0.77 µM); MIC [24]: 0.13 µg/mL (≈ 0.2 µM); MIC [25]: 2 µg/mL (≈ 3.08 µM)
C=CC[n+]1c(N)cc(N)nc1SCC1=C(C(=O)[O-])N2C(=O)C(NC(=O)/C(=N\OC(C)C(=O)O)c3csc(N)n3)C2SC1 (stereo not drawn) [Compound I-6]	1 µg/mL (≈ 1.57 µM)	2 µg/mL (≈ 3.15 µM)	4 µg/mL (≈ 6.29 µM)	2 µg/mL (≈ 3.15 µM)	0.063 µg/mL (≈ 0.0991 µM)	1 µg/mL (≈ 1.57 µM)	4 µg/mL (≈ 6.29 µM)	0.016 µg/mL (≈ 0.0252 µM)	0.063 µg/mL (≈ 0.0991 µM)	0.25 µg/mL (≈ 0.393 µM)	0.031 µg/mL (≈ 0.0488 µM)	> 128 µg/mL	0.031 µg/mL (≈ 0.0488 µM)	4 µg/mL (≈ 6.29 µM)	0.031 µg/mL (≈ 0.0488 µM)	≤ 0.008 µg/mL	0.13 µg/mL (≈ 0.204 µM)	2 µg/mL (≈ 3.15 µM)	128 µg/mL (≈ 201 µM)	≤ 0.008 µg/mL	MIC [23]: 0.25 µg/mL (≈ 0.393 µM); MIC [24]: 0.063 µg/mL (≈ 0.0991 µM); MIC [25]: 2 µg/mL (≈ 3.15 µM)
